Source: US6602274B1, “Targeted transcutaneous cancer therapy” (Light Sciences Corporation, priority 1999, dated 2003)

Experiments:
[1] = systemic administration, clinical use; cited from earlier work
[2] = tested on: colon carcinoma tumor mass; assay: Photodynamic therapy of a solid tumor with implanted LED light source probes after oral ALA; assay type: in vivo, human
Description: A patient in the terminal phase of recurrent malignant colon cancer presented with a protruding colon carcinoma tumor mass of approximately 500 grams and approximately 13 cm in diameter, which extended through the patient's dermis. Due to the advanced state of the patient's disease and due to the highly vascularized nature of this tumor mass, resection was not feasible. Further, this large tumor mass presented a significant amount of pain and discomfort to the patient, as well as greatly impairing the patient's ability to lie flat.
Six separate light source probes, each including a linear array of LEDs, were surgically implanted in this large human tumor using standard surgical procedures. An intensity of about 25-30 mW of light from each light source probe (650 nm peak wavelength) was delivered to the tumor for 40 hours following oral administration to the patient of a single dose of an (ALA) photosensitizer agent (60 mg/kg). However, after 18 hours, two of the light source probes became unseated from the tumor mass and were disconnected from the electrical power supply used to energize the LEDs on each probe. The total fluence delivered to the tumor bed during this single extended duration treatment was in excess of 20,000 Joules. […] The extent of this PDT induced necrotic effect in a large volume of tumor tissue was totally unexpected and has not been described before in any PDT studies in subjects in vivo or clinically. Over the course of four weeks following PDT, the necrotic tumor tissue was debrided from the patient resulting in a reduction of approximately 500 grams of tumor tissue.
The fluence rate employed in this Example represented about 150-180 mW/cm^2, with a total fluence more than 20,000 Joules. The preferable fluence rate contemplated more broadly by the present invention is between about 5 mW/cm^2 and about 100 mW/cm^2, more preferably, between about 10 mW/cm^2 and about 75 mW/cm^2, and most preferably, between about 15 mW/cm^2 and about 50 mW/cm^2.

virus-infected T cells = virus-infected T cells treated with BPD, exposed to light; Blood Cells 18:129-40 (1992); cited from earlier work

## CCOC(=O)C1=Cc2c3nc(cc4nc(cc5[n-]c(cc6[n-]c2c(C)c6CC)c(C)c5CC)C(C)=C4CC)[C@@H](C)[C@]13CC.[Cl-].[Cl-].[Sn] (racemic) [PURLYTIN]
[1]
  duration of general dermal photosensitivity / sensitization of the skin to light: at least several weeks

## NCC(=O)CCC(=O)O [ALA, aminolevulinic acid]
[2]; one patient, single oral dose 60 mg/kg, 650 nm light, 40 hours of PDT, total fluence in excess of 20,000 Joules
  Extensive tumor necrosis, radius around each of the light source probes: up to 5 cm
[2]; one patient, single oral dose 60 mg/kg, after 40 hours of PDT
  collateral damage to surrounding normal tissue: no collateral damage
[2]; over the course of four weeks following PDT, tumor mass of approximately 500 grams
  reduction of tumor tissue (necrotic tumor tissue debrided): approximately 500 grams

## Oc1cccc(-c2c3nc(c(-c4cccc(O)c4)c4ccc([nH]4)c(-c4cccc(O)c4)c4nc(c(-c5cccc(O)c5)c5ccc2[nH]5)CC4)C=C3)c1 [FOSCAN]
[1]
  duration of general dermal photosensitivity / sensitization of the skin to light: at least several weeks

## benzoporphyrin derivatives [BPD]
virus-infected T cells
  effect on T cell membrane after exposure to light: holes developed in the T cell membrane and increased in size until the membrane completely decomposed

## sodium porfimer [PHOTOPHRIN]
[1]
  duration of general dermal photosensitivity / sensitization of the skin to light: up to six weeks
